From US6518304B1, “Fungicidal composition” (Sumitomo Chemical Company, Limited, priority 1993, dated 2003) come the findings set out here.

The test system of assay [1] is apple scab fungus. Description: Test Example 8: apple scab, foliage application then inoculation. The assay is classed as in vivo, Venturia inaequalis. The settings on record: apple seedling.
Assay [2] has as its system tomato late blight fungus (Phytophthora infestans). The assay is classed as in vivo. The settings on record: 10 ppm; tomato plant, 1 week at 24° C.
The subject of assay [3] is gray mold fungus. Description: Test Example 4: cucumber gray mold, foliage application after inoculation. The settings on record: cucumber seedling, applied after inoculation.
Protocol: Each of plastic pots was filled with sandy loam and sown with cucumber (Sagamihanjiro), followed by growing in a greenhouse for 14 days. Gray mold fungus was inoculated on the surfaces of leaves of the grown cucumber young seedling, and the young seedling was grown in the dark at 10° C. and a high humidity for 2 days and then at a temperature of 23° C. for 3 days. A wettable powder of test agents prepared according to Formulation Example 11 was diluted to a predetermined concentration with water, and foliage application of the dilution was carried out so as to adhere the dilution sufficiently to the surfaces of leaves of the cucumber young seedling. After the spraying, the young seedling was grown in the dark at 10° C. and a high humidity for 3 days, and then the infection rate (%) was investigated.
Assay [4] deals with apple scab fungus. In words: Test Example 13: apple scab, foliage application then inoculation. The assay is classed as in vivo, Venturia inaequalis. The settings on record: apple seedling.
Assay [5] has as its system gray mold fungi tolerant to benzimidazole type fungicidal compounds. Description: Test Example 17: cucumber gray mold, benzimidazole-tolerant (resistant) fungus. The settings on record: cucumber seedling.
Protocol: (§1) Each of plastic pots was filled with sandy loam and sown with cucumber (Sagamihanjiro), followed by growing in a greenhouse for 14 days. A wettable powder of test agents prepared according to Formulation Example 59 was diluted to a predetermined concentration with water, and foliage application of the dilution was carried out so as to adhere the dilution sufficiently to the surfaces of leaves of the grown cucumber young seedling. After air-drying, each of gray mold fungi sensitive and tolerant, respectively, to benzimidazole type fungicidal compounds was inoculated on the surfaces of leaves of the young seedling, and the young seedling was grown in the dark at 10° C. and a high humidity for 4 days, after which the infection rate (%) was investigated.
Assay [6] has as its system grape downy mildew fungus. Description: Test Example 6: grape downy mildew, foliage application then inoculation. The settings on record: grape seedling.
Protocol: (§2) Each of plastic pots was filled with sandy loam and sown with grape (Berry A), followed by growing in a greenhouse for 40 days. […] Then, the young seedling was inoculated with a suspension of zoosporangia of grape downy mildew fungus by spraying. After the inoculation, the young seedling was allowed to stand overnight at 23° C. and a high humidity and then grown in a greenhouse for 7 days, after which the infection rate (%) was investigated.
In assay [7] the test system is grape powdery mildew fungus (Uncinula necator). Description: Test Example 16: grape powdery mildew, spray then inoculation. The assay is classed as in vivo. The settings on record: 10 ppm; grape plant, 3 weeks at 24° C.
The subject of assay [8] is tomato late blight fungus (Phytophthora infestans). The assay is classed as in vivo. The settings on record: 10 ppm; tomato plant, 1 week at 24° C. The source holds these as a separate data set.
The subject of assay [9] is grape downy mildew fungus. Description: Test Example 9: grape downy mildew, foliage application then inoculation. The settings on record: grape seedling.
Protocol: as §2
The subject of assay [10] is gray mold fungi sensitive to benzimidazole type fungicidal compounds. Description: Test Example 12: cucumber gray mold, benzimidazole-sensitive fungus. The settings on record: cucumber seedling.
Protocol: Each of plastic pots was filled with sandy loam and sown with cucumber (Sagamihanjiro), followed by growing in a greenhouse for 14 days. A wettable powder of test agents prepared according to Formulation Example 41 was diluted to a predetermined concentration with water, and foliage application of the dilution was carried out so as to adhere the dilution sufficiently to the surfaces of leaves of the grown cucumber young seedling. After air-drying, each of gray mold fungi sensitive and tolerant, respectively, to benzimidazole type fungicidal compounds was inoculated on the surfaces of leaves of the young seedling, and the young seedling was grown in the dark at 10° C. and a high humidity for 4 days, after which the infection rate (%) was investigated.
Assay [11] relates to grape downy mildew fungus (Plasmopara viticola). In words: Test Example 2: grape downy mildew, spray then inoculation, infection rate. The assay is classed as in vivo. The settings on record: 10 ppm; grape plant, 1 week at 24° C. An excerpt:
A grape plant (cultivar: Berry A) was planted in each pot and was sprayed with a sufficient volume of a dilution with a predetermined concentration of a wettable powder obtained according to Formulation Example 5, after the plant put out a fourth leaf.

Assay [12] deals with gray mold fungi sensitive to benzimidazole type fungicidal compounds. In words: Test Example 17: cucumber gray mold, benzimidazole-sensitive fungus. The settings on record: cucumber seedling.
Protocol: as §1
For assay [13], the system named is tomato late blight fungus. The assay is classed as in vivo, Phytophthora infestans. The settings on record: tomato seedling.
Assay [14] has as its system gray mold fungus. Description: Test Example 11: cucumber gray mold, foliage application before inoculation. The settings on record: cucumber seedling.
Protocol: Each of plastic pots was filled with sandy loam and sown with cucumber (Sagamihanjiro), followed by growing in a greenhouse for 14 days. A wettable powder of test agents prepared according to Formulation Example 35 was diluted to a predetermined concentration with water, and foliage application of the dilution was carried out so as to adhere the dilution sufficiently to the surfaces of leaves of the grown cucumber young seedling. After air-drying, gray mold fungus was inoculated on the surfaces of leaves of the young seedling, and the young seedling was grown in the dark at 10° C. and a high humidity for 4 days, after which the infection rate (%) was investigated.
For assay [15], the system named is gray mold fungus. Description: Test Example 3: cucumber gray mold, foliage application before inoculation. The settings on record: cucumber seedling, applied before inoculation, 4 days.
Protocol: Each of plastic pots was filled with sandy loam and sown with cucumber (Sagamihanjiro), followed by growing in a greenhouse for 14 days. A wettable powder of test agents prepared according to Formulation Example 11 was diluted to a predetermined concentration with water, and foliage application of the dilution was carried out so as to adhere the dilution sufficiently to the surfaces of leaves of the grown cucumber young seedling. After air-drying, gray mold fungus was inoculated on the surfaces of leaves of the young seedling, and the young seedling was grown in the dark at 10° C. and a high humidity for 4 days, after which the infection rate (%) was investigated.
In assay [16] the test system is gray mold fungi tolerant to benzimidazole type fungicidal compounds. In words: Test Example 12: cucumber gray mold, benzimidazole-tolerant (resistant) fungus. The settings on record: cucumber seedling.
Protocol: Each of plastic pots was filled with sandy loam and sown with cucumber (Sagamihanjiro), followed by growing in a greenhouse for 14 days. […] After air-drying, each of gray mold fungi sensitive and tolerant, respectively, to benzimidazole type fungicidal compounds was inoculated on the surfaces of leaves of the young seedling, and the young seedling was grown in the dark at 10° C. and a high humidity for 4 days, after which the infection rate (%) was investigated.
Assay [17] deals with tomato late blight fungus. The assay is classed as in vivo, Phytophthora infestans. The settings on record: tomato seedling. The source holds these as a separate data set.
Assay [18] has as its system grape downy mildew fungus. Description: Test Example 7: grape downy mildew, foliage application then inoculation. The settings on record: grape seedling.
Protocol: as §2
For assay [19], the system named is grape powdery mildew fungus (Uncinula necator). In words: Test Example 14: grape powdery mildew, spray then inoculation. The assay is classed as in vivo. The settings on record: grape plant, 3 weeks at 24° C.

Where two headings read alike, the source gives them in different places.

`O=C1C2CC=CCC2C(=O)N1SC(Cl)(Cl)Cl` (stereo not shown) [Captan, 1,2,3,6-tetrahydro-N-(trichloromethylthio)phthalimide, reference compound]: the “Infection rate (%)” value in [1] (300 ppm) is on record as 20%.
In the case of `CON=C(C(=O)OC)c1ccccc1COc1ccccc1C` [Compound (Ia), methyl α-methoxyimino-2-[(2-methylphenoxy)methyl]phenylacetate], the “Infection rate (%)” value in assay [2] came to 25%; in assay [3] (10 ppm), 30%; in assay [4] (1 ppm), 20%; in [6] (5 ppm) it was 20%; in assay [7], 30%; in assay [8], 25%. The “Infection rate (%)” value in assay [9] (20 ppm) is on record as 25%; in [1] (0.8 ppm) it was 20%; in [11], 30%; in assay [13] (50 ppm), 25%; in assay [14] (10 ppm), 30%; in [15] (10 ppm), 30%. Also, the “Infection rate (%)” value in [17] (100 ppm) was found to be 25%; in [18] (10 ppm), 20%; in assay [19] (1 ppm) it was 20%. Further, the “Infection rate (%) Resistant fungus” value in [5] (10 ppm) and in assay [16] (10 ppm) was 30% throughout. For the same molecule, the “Infection rate (%) Sensitive fungus” value in [10] (10 ppm) and in assay [12] (10 ppm) was 30% throughout.
Regarding `CNC(=O)C(=NOC)c1ccccc1COc1cccc(Cl)c1` [Compound (Ic), N-methyl-α-methoxyimino-2-[(3-chlorophenoxy)methyl]phenylacetamide], the “Infection rate (%)” value in [2] worked out at 25%; in [3] (200 ppm), 20%; in [4] (1 ppm), 30%; in assay [6] (5 ppm), 25%; in assay [7], 25%; in [8] it was 25%. Besides, the “Infection rate (%)” value is on record as 20% in [9] (100 ppm); 25% in [1] (5 ppm); 25% in assay [11]; 20% in [13] (40 ppm); 20% in [14] (200 ppm); 20% in assay [15] (200 ppm). Moreover, the entries for the “Infection rate (%)” value in assay [17] (40 ppm), in assay [18] (10 ppm) and in assay [19] (1 ppm) were 20%, 25% and 20%, respectively. In addition, the “Infection rate (%) Resistant fungus” value in [5] (200 ppm) and in assay [16] (200 ppm) was 20% each time. Moreover, the “Infection rate (%) Sensitive fungus” value in assay [10] (200 ppm) and in assay [12] (200 ppm) was 20% in each case.
Consider `CNC(=O)C(=NOC)c1ccccc1COc1ccc(Cl)cc1Cl` [Compound (Id), N-methyl-α-methoxyimino-2-[(2,4-dichlorophenoxy)methyl]phenylacetamide], for which the “Infection rate (%)” value was found to be 25% in [2]; 20% in assay [3] (200 ppm); 20% in assay [4] (5 ppm); 25% in assay [6] (5 ppm); 25% in assay [7]; 25% in [8]. Besides, the “Infection rate (%)” value in assay [9] (40 ppm) came to 20%; in assay [1] (5 ppm) it was 25%; in assay [11] it was 25%; in [13] (40 ppm), 20%; in [14] (200 ppm) it was 20%; in [15] (200 ppm) it was 20%. The figures for the “Infection rate (%)” value in [17] (40 ppm), in [18] (10 ppm) and in [19] (1 ppm) were 20%, 20% and 25%, respectively. Further, the “Infection rate (%) Resistant fungus” value in assay [5] (200 ppm) and in [16] (200 ppm) was 20% throughout. Further, the “Infection rate (%) Sensitive fungus” value in assay [10] (200 ppm) and in [12] (200 ppm) was 20% in each case.
Consider `CNC(=O)C(=NOC)c1ccccc1COc1cc(C)ccc1C` [Compound (Ie), N-methyl-α-methoxyimino-2-[(2,5-dimethylphenoxy)methyl]phenylacetamide], for which the “Infection rate (%)” value stood at 25% in assay [2]; 25% in assay [3] (20 ppm); 20% in assay [4] (0.5 ppm); 25% in [6] (1 ppm); 25% in [7]; 25% in [8]. Besides, the “Infection rate (%)” value in assay [9] (10 ppm) is recorded as 25%; in [1] (0.5 ppm), 20%; in assay [11] it was 25%; in assay [13] (10 ppm), 20%; in assay [14] (20 ppm), 25%; in assay [15] (20 ppm) it was 25%. Further, the “Infection rate (%)” value in [17] (5 ppm) was 25%; in assay [18] (2 ppm) it was 20%; in [19] (1 ppm) it was 25%. Moreover, the “Infection rate (%) Resistant fungus” value in [5] (20 ppm) and in assay [16] (20 ppm) was 25% each time. Also, the “Infection rate (%) Sensitive fungus” value in assay [10] (20 ppm) and in [12] (20 ppm) was 25% throughout.
Consider `CCOc1ccc(NC(=O)OC(C)C)cc1OCC` [Diethofencarb, isopropyl 3,4-diethoxyphenylcarbamate, reference compound], for which the “Infection rate (%) Resistant fungus” value in assay [5] (10 ppm) was determined as 20%. Further, the “Infection rate (%) Sensitive fungus” value in assay [12] (10 ppm) was 100%.
For `COCC(=O)N(c1c(C)cccc1C)[C@@H](C)C(=O)OC` [Metalaxyl, methyl N-(2,6-dimethylphenyl)-N-(methoxyacetyl)-alaninate, reference compound], the “Infection rate (%)” value in assay [9] (1 ppm) and in [17] (5 ppm) was 20% in each case.
Turning to `S1SSSSSSS1` [Sulfur, sulfur, reference compound], the “Infection rate (%)” value in [19] (500 ppm) is 20%.
